Assay results reported in patent publication US9695155B2, “Herbicidal substituted pyrimidinyloxy benzene compounds” (E. I. DU PONT DE NEMOURS AND COMPANY, priority 2013, dated 2017).

Experiments:
[1] = system: rice; assay: Test B flooded paddy test; type: in vivo, Oryza sativa; conditions: Flood, 250 g ai/ha; 0 to 100 scale where 0 is no effect and 100 is complete control
Outline: (§1)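 Plants at 2-leaf stage; pots flooded to 3 cm above soil and compound applied directly into paddy water, depth held throughout. After 13 to 15 days in greenhouse, visual rating versus controls on 0 (no effect) to 100 (complete control) scale.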

[2] = system: wheat; assay: Test A postemergence; type: in vivo, Triticum aestivum
Outline: (§2)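 Visual 0–100 rating (100 = complete control) taken about 10 d post-treatment relative to untreated checks. Preemergence: directed soil spray on sown loam/sand pots. Postemergence: seedlings 2–10 cm, 1–2 leaf. Non-phytotoxic solvent formulation with surfactant.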

[3] = system: barnyardgrass; assay: Test A preemergence; type: in vivo, Echinochloa crus-galli; conditions: for Barnyardgrass plant response rating: 500 g ai/ha
Outline: as §2

[4] = system: large (Lg) crabgrass; assay: Test A preemergence; type: in vivo, Digitaria sanguinalis; conditions: for Crabgrass, Large plant response rating: 500 g ai/ha
Outline: as §2

[5] = system: morningglory; assay: Test A postemergence; type: in vivo, Ipomoea spp.
Outline: as §2

[6] = system: giant foxtail; assay: Test A postemergence; type: in vivo, Setaria faberii
Outline: as §2

[7] = system: velvetleaf; assay: Test A preemergence; type: in vivo, Abutilon theophrasti
Outline: as §2

[8] = system: large (Lg) crabgrass; assay: Test A postemergence; type: in vivo, Digitaria sanguinalis
Outline: as §2

[9] = system: corn; assay: Test A postemergence; type: in vivo, Zea mays
Outline: as §2

[10] = system: Heteranthera limosa; assay: Test B flooded paddy test; type: in vivo; conditions: Flood, 250 g ai/ha; 0 to 100 scale where 0 is no effect and 100 is complete control
Outline: as §1

[11] = system: wheat; assay: Test A preemergence; type: in vivo, Triticum aestivum
Outline: as §2

[12] = system: barnyardgrass; assay: Test B flooded paddy test; type: in vivo, Echinochloa crus-galli; conditions: Flood, 250 g ai/ha; 0 to 100 scale where 0 is no effect and 100 is complete control
Outline: as §1

[13] = system: barnyardgrass; assay: Test A postemergence; type: in vivo, Echinochloa crus-galli
Outline: as §2

[14] = system: sedge, umbrella; assay: Test B flooded paddy test; type: in vivo, Cyperus difformis; conditions: Flood, 250 g ai/ha; 0 to 100 scale where 0 is no effect and 100 is complete control
Outline: as §1

[15] = system: giant foxtail; assay: Test A preemergence; type: in vivo, Setaria faberii
Outline: as §2

[16] = system: velvetleaf; assay: Test A postemergence; type: in vivo, Abutilon theophrasti
Outline: as §2

[17] = system: corn; assay: Test A preemergence; type: in vivo, Zea mays; conditions: for Corn plant response rating: 500 g ai/ha
Outline: as §2

[18] = system: pigweed; assay: Test A preemergence; type: in vivo, Amaranthus retroflexus
Outline: as §2

[19] = system: morningglory; assay: Test A preemergence; type: in vivo, Ipomoea spp.
Outline: as §2

[20] = system: pigweed; assay: Test A postemergence; type: in vivo, Amaranthus retroflexus
Outline: as §2

[21] = 125 g ai/ha, 0 to 100 scale, 0 no effect, 100 complete control
[22] = 500 g ai/ha, 0 to 100 scale where 0 is no effect and 100 is complete control
[23] = 0 to 100 scale where 0 is no effect and 100 is complete control
[24] = 1000 g ai/ha, 0 to 100 scale, 0 no effect, 100 complete control
[25] = 1000 g ai/ha, 0 to 100 scale, 0 no effect, 100 complete control, approx. 10 days
[26] = 125 g ai/ha, 0 to 100 scale where 0 is no effect and 100 is complete control
[27] = 500 g ai/ha, 0 to 100 scale, 0 no effect, 100 complete control
[28] = 0 to 100 scale, 0 no effect, 100 complete control, approx. 10 days
[29] = 500 g ai/ha, 0 to 100 scale, 0 no effect, 100 complete control, approx. 10 days

Structure (SMILES): CCOC(=O)c1cnn(-c2c(C#N)cccc2Oc2ncc(Br)cn2)c1 [Compound 294]
- Plant response rating, Rice [1]: 0
- Plant response rating, Wheat [2, 21]: 0
- Plant response rating, Wheat [2, 22]: 40
- Barnyardgrass plant response rating (0 to 100 scale, 0 is no effect, 100 is complete control) ([3]; 125 g ai/ha): 0
- Barnyardgrass plant response rating [3, 23]: 20
- Crabgrass, Large plant response rating (0 to 100 scale) ([4]; 125 g ai/ha): 30
- Crabgrass, Large plant response rating [4, 23]: 60
- Plant response rating, Morningglory [5, 21]: 20
- Plant response rating, Morningglory [5, 22]: 30
- Plant response rating, Foxtail, Giant [6, 21]: 10
- Plant response rating, Foxtail, Giant [6, 22]: 50
- Velvetleaf plant response rating (0 to 100 scale) ([7]; 125 g ai/ha): 10
- Velvetleaf plant response rating [7, 22]: 70
- Plant response rating, Crabgrass, Large [8, 21]: 0
- Plant response rating, Crabgrass, Large [8, 22]: 50
- Plant response rating, Corn [9, 21]: 0
- Plant response rating, Corn [9, 22]: 40
- Plant response rating, Ducksalad [10]: 0
- Wheat plant response rating (0 to 100 scale) ([11]; 125 g ai/ha): 0
- Wheat plant response rating [11, 22]: 0
- Plant response rating, Barnyardgrass [12]: 0
- Plant response rating, Barnyardgrass [13, 21]: 20
- Plant response rating, Barnyardgrass [13, 22]: 60
- Plant response rating, Sedge, Umbrella [14]: 0
- Foxtail, Giant plant response rating (0 to 100 scale) ([15]; 125 g ai/ha): 30
- Foxtail, Giant plant response rating [15, 22]: 70
- Plant response rating, Velvetleaf [16, 21]: 50
- Plant response rating, Velvetleaf [16, 22]: 60
- Corn plant response rating (0 to 100 scale) ([17]; 125 g ai/ha): 0
- Corn plant response rating [17, 23]: 0
- Pigweed plant response rating (0 to 100 scale) ([18]; 125 g ai/ha): 100
- Pigweed plant response rating [18, 22]: 100
- Morningglory plant response rating (0 to 100 scale) ([19]; 125 g ai/ha): 0
- Morningglory plant response rating [19, 22]: 0
- Plant response rating, Pigweed [20, 21]: 60
- Plant response rating, Pigweed [20, 22]: 90

Structure (SMILES): FC(F)(F)COc1cccc(Oc2ncc(Cl)cn2)c1-n1cc(Br)cn1 [Compound 69]
- Plant response rating, Rice [1]: 0
- Plant response rating, Wheat [2, 24]: 30
- Plant response rating, Barnyardgrass [3, 24]: 70
- Plant response rating, Crabgrass, Large [4, 24]: 90
- Plant response rating, Morningglory [5, 24]: 30
- Plant response rating, Foxtail, Giant [6, 24]: 70
- Velvetleaf plant response rating [7, 25]: 80
- Plant response rating, Crabgrass, Large [8, 24]: 80
- Plant response rating, Corn [9, 24]: 20
- Plant response rating, Ducksalad [10]: 0
- Wheat plant response rating [11, 25]: 20
- Plant response rating, Barnyardgrass [12]: 0
- Plant response rating, Barnyardgrass [13, 24]: 50
- Plant response rating, Sedge, Umbrella [14]: 0
- Foxtail, Giant plant response rating [15, 25]: 90
- Plant response rating, Velvetleaf [16, 24]: 60
- Plant response rating, Corn [17, 24]: 0
- Pigweed plant response rating [18, 25]: 100
- Morningglory plant response rating [19, 25]: 10
- Plant response rating, Pigweed [20, 24]: 100

Structure (SMILES): Cc1cccc(Oc2ncc(Br)cn2)c1-n1cc(Br)cn1 [Compound 45]
- Plant response rating, Rice [1]: 0
- Plant response rating, Wheat [2, 26]: 0
- Plant response rating, Wheat [2, 27]: 40
- Plant response rating, Barnyardgrass [3, 26]: 30
- Barnyardgrass plant response rating [3, 28]: 100
- Plant response rating, Crabgrass, Large [4, 26]: 90
- Crabgrass, Large plant response rating [4, 28]: 100
- Plant response rating, Morningglory [5, 26]: 10
- Plant response rating, Morningglory [5, 27]: 20
- Plant response rating, Foxtail, Giant [6, 26]: 70
- Plant response rating, Foxtail, Giant [6, 27]: 90
- Plant response rating, Velvetleaf [7, 26]: 100
- Velvetleaf plant response rating [7, 29]: 100
- Plant response rating, Crabgrass, Large [8, 26]: 60
- Plant response rating, Crabgrass, Large [8, 27]: 100
- Plant response rating, Corn [9, 26]: 10
- Plant response rating, Corn [9, 27]: 70
- Plant response rating, Ducksalad [10]: 85
- Plant response rating, Wheat [11, 26]: 0
- Wheat plant response rating [11, 29]: 0
- Plant response rating, Barnyardgrass [12]: 30
- Plant response rating, Barnyardgrass [13, 26]: 40
- Plant response rating, Barnyardgrass [13, 27]: 100
- Plant response rating, Sedge, Umbrella [14]: 75
- Plant response rating, Foxtail, Giant [15, 26]: 90
- Foxtail, Giant plant response rating [15, 29]: 100
- Plant response rating, Velvetleaf [16, 26]: 100
- Plant response rating, Velvetleaf [16, 27]: 100
- Plant response rating, Corn [17, 26]: 0
- Corn plant response rating [17, 28]: 20
- Plant response rating, Pigweed [18, 26]: 100
- Pigweed plant response rating [18, 29]: 100
- Plant response rating, Morningglory [19, 26]: 0
- Morningglory plant response rating [19, 29]: 10
- Plant response rating, Pigweed [20, 26]: 60
- Plant response rating, Pigweed [20, 27]: 80

Structure (SMILES): Clc1cnc(Oc2cc(Cl)ccc2-n2cccn2)nc1 [Compound 49]
- Plant response rating, Rice [1]: 0
- Plant response rating, Wheat [2, 26]: 0
- Plant response rating, Wheat [2, 27]: 0
- Plant response rating, Barnyardgrass [3, 26]: 0
- Barnyardgrass plant response rating [3, 28]: 0
- Plant response rating, Crabgrass, Large [4, 26]: 0
- Crabgrass, Large plant response rating [4, 28]: 20
- Plant response rating, Morningglory [5, 26]: 0
- Plant response rating, Morningglory [5, 27]: 20
- Plant response rating, Foxtail, Giant [6, 26]: 0
- Plant response rating, Foxtail, Giant [6, 27]: 10
- Plant response rating, Velvetleaf [7, 26]: 0
- Velvetleaf plant response rating [7, 29]: 20
- Plant response rating, Crabgrass, Large [8, 26]: 0
- Plant response rating, Crabgrass, Large [8, 27]: 10
- Plant response rating, Corn [9, 26]: 0
- Plant response rating, Corn [9, 27]: 0
- Plant response rating, Ducksalad [10]: 0
- Plant response rating, Wheat [11, 26]: 0
- Wheat plant response rating [11, 29]: 0
- Plant response rating, Barnyardgrass [12]: 0
- Plant response rating, Barnyardgrass [13, 26]: 0
- Plant response rating, Barnyardgrass [13, 27]: 10
- Plant response rating, Sedge, Umbrella [14]: 0
- Plant response rating, Foxtail, Giant [15, 26]: 0
- Foxtail, Giant plant response rating [15, 29]: 10
- Plant response rating, Velvetleaf [16, 26]: 10
- Plant response rating, Velvetleaf [16, 27]: 30
- Plant response rating, Corn [17, 26]: 0
- Corn plant response rating [17, 28]: 0
- Plant response rating, Pigweed [18, 26]: 0
- Pigweed plant response rating [18, 29]: 0
- Plant response rating, Morningglory [19, 26]: 0
- Morningglory plant response rating [19, 29]: 0
- Plant response rating, Pigweed [20, 26]: 0
- Plant response rating, Pigweed [20, 27]: 40

Structure (SMILES): CC=Cc1cnn(-c2ccccc2Oc2ncc(Cl)cn2)c1 [Compound 27]
- Plant response rating, Rice [1]: 0
- Plant response rating, Wheat [2, 26]: 0
- Plant response rating, Wheat [2, 27]: 0
- Plant response rating, Barnyardgrass [3, 26]: 0
- Barnyardgrass plant response rating [3, 28]: 20
- Plant response rating, Crabgrass, Large [4, 26]: 0
- Crabgrass, Large plant response rating [4, 28]: 50
- Plant response rating, Morningglory [5, 26]: 10
- Plant response rating, Morningglory [5, 27]: 50
- Plant response rating, Foxtail, Giant [6, 26]: 0
- Plant response rating, Foxtail, Giant [6, 27]: 30
- Plant response rating, Velvetleaf [7, 26]: 0
- Velvetleaf plant response rating [7, 29]: 10
- Plant response rating, Crabgrass, Large [8, 26]: 20
- Plant response rating, Crabgrass, Large [8, 27]: 60
- Plant response rating, Corn [9, 26]: 0
- Plant response rating, Corn [9, 27]: 10
- Plant response rating, Ducksalad [10]: 75
- Plant response rating, Wheat [11, 26]: 0
- Wheat plant response rating [11, 29]: 0
- Plant response rating, Barnyardgrass [12]: 0
- Plant response rating, Barnyardgrass [13, 26]: 0
- Plant response rating, Barnyardgrass [13, 27]: 10
- Plant response rating, Sedge, Umbrella [14]: 75
- Plant response rating, Foxtail, Giant [15, 26]: 0
- Foxtail, Giant plant response rating [15, 29]: 40
- Plant response rating, Velvetleaf [16, 26]: 50
- Plant response rating, Velvetleaf [16, 27]: 70
- Plant response rating, Corn [17, 26]: 0
- Corn plant response rating [17, 28]: 0
- Plant response rating, Pigweed [18, 26]: 10
- Pigweed plant response rating [18, 29]: 20
- Plant response rating, Morningglory [19, 26]: 0
- Morningglory plant response rating [19, 29]: 0
- Plant response rating, Pigweed [20, 26]: 60
- Plant response rating, Pigweed [20, 27]: 70
